Assay results taken from US4026888A, “Certain derivatives of particular 3-thiolated cephalosporins” (priority 1976, dated 1977).
Read-outs that look alike come from different tables or passages of the source.

Tests used:
[1] = Urinary recovery after IM administration to rats; assay type: in vivo; conditions: rat, urine, read-out: Urinary Recovery, Percentage of Administered Dose Recovered; for dose excreted at 6 h: 0-6 hr
Description: Urinary Recovery After IM
Administration of 50 and 10 mg./kg. to Rats
The compounds were prepared in 0.01% phosphate buffer. BL-S640 was used as
Urinary Recovery after IM
Administration of 50 mg./kg. to Rats
The compounds were prepared in 0.01% phosphate buffer.

[2] = Mouse blood levels after oral administration; assay type: in vivo; conditions: for concentration at 0.5 h / concentration at 2 h / concentration at 3.5 h / concentration at 1 h: mouse, blood, po
Description: Mouse Blood Levels After Oral
Administration Of 100 mg./kg. Body Weight
The compounds were prepared in
Tween - carboxymethylcellulose
and 8 mice were used for each
Mouse Blood Levels After PO
Administration of 100 mg./kg. Body Weight
The compounds were prepared in Tween-CMC. BL-S640
The compounds were prepared in Tween-CMC. Values are the average of two

bacterial spectrum = test: Antibacterial activity / MIC bacterial spectrum compared with parent; assay type: cell-based; conditions: in words
Description: |Antibiotic Activity In Nutrient Broth

[3] = IR-NMR: cyclic / non cyclic derivative in solution; assay type: physicochemical; conditions: 70 mg/ml
[4] = Detection in urine (with mouse blood levels); assay type: in vivo; conditions: no evidence of the derivative
Rat blood levels = assay type: in vivo; conditions: in words
[5] = Stability of aqueous solutions; assay type: physicochemical
Water solubility = assay type: physicochemical; conditions: for solubility: read-out: Solubility in water
[6] = for Form in solution by paper strip and liquid chromatography: 0.2 and 1.0 mg./ml. in water
Description: (§1) Paper strip bioautographs were run in the following manner. Samples were dissolved at a concentration of 500 γ/ml. in 0.1M pH 7 phosphate buffer and pH 7 pooled human serum at 500 γ/ml. A 10 μl sample of BL-S640 and the above product were spotted on a 1/2 inch strip of What. No. 1 paper and developed at 27° for 16 hours in a butyl acetate 80, n-butanol 15, acetic acid 40, and water 24 system. The strips were air-dried, and placed on an agar plate seeded with B. subtilis A.T.C.C.
(§2) Samples were chromatographed on a μ Bondapak C18 (Waters Associates) column using a 0.01M sodium acetate pH 4/-methanol 8/2 mobile phase at a flow rate of 0.52 ml./min. Detection was by UV at 354 μm. Samples were dissolved at a concentration of 1 mg./ml. in the mobile phase, 2 μ were injected and BL-S640 was eluted at 18 min. and the aldehyde at 6 min. The quantitation of BL-S640 and 5-formylfuransulfonic acid were made using p-toluene-sulfonic acid as an internal standard.

Stability of solids = assay type: physicochemical; conditions: solid; 1 month at 56° C.; read-out: Stability of Solids (loss)
[7] = 50 mg/kg, IM 50 mg./kg., 0-24 hr
[8] = 50 mg/kg, IM 50 mg./kg., 6-24 hr
[9] = 100 mg/kg, Example 3, PO 100 mg./kg., 0.5 hr, Tween-CMC, average of two experiments, read-out: Blood Levels
[10] = 100 mg/kg, Example 3, PO 100 mg./kg., 2 hr, Tween-CMC, average of two experiments, read-out: Blood Levels
[11] = 100 mg/kg, Example 3, PO 100 mg./kg., 3.5 hr, Tween-CMC, average of two experiments, read-out: Blood Levels
[12] = 100 mg/kg, Table II, oral 100 mg./kg., 0.5 hr, Tween-carboxymethylcellulose, 8 mice, read-out: Blood Level
[13] = 100 mg/kg, Table II, oral 100 mg./kg., 1 hr, Tween-carboxymethylcellulose, 8 mice, read-out: Blood Level
[14] = 100 mg/kg, Table II, oral 100 mg./kg., 2 hr, Tween-carboxymethylcellulose, 8 mice, read-out: Blood Level
[15] = 100 mg/kg, Table II, oral 100 mg./kg., 3.5 hr, Tween-carboxymethylcellulose, 8 mice, read-out: Blood Level
[16] = 10 mg/kg, IM 10 mg./kg., 0-24 hr
[17] = 10 mg/kg, IM 10 mg./kg., 6-24 hr
[18] = 100 mg/kg, Example 2, PO 100 mg./kg., 0.5 hr, Tween-CMC, 16 or 32 mice, read-out: Blood Levels
[19] = 100 mg/kg, Example 2, PO 100 mg./kg., 1 hr, Tween-CMC, 16 or 32 mice, read-out: Blood Levels
[20] = 100 mg/kg, Example 2, PO 100 mg./kg., 2 hr, Tween-CMC, 16 or 32 mice, read-out: Blood Levels
[21] = 100 mg/kg, Example 2, PO 100 mg./kg., 3.5 hr, Tween-CMC, 16 or 32 mice, read-out: Blood Levels

Description for physchem: as §1, §2

Structure (SMILES) | dose excreted at 6 h ([1]; 50 mg/kg, IM 50 mg./kg.) | dose excreted at 24 h [1, 7] | dose excreted at 24 h [1, 8] | concentration at 0.5 h [2, 9] | concentration at 2 h [2, 10] | concentration at 3.5 h [2, 11] | concentration at 0.5 h [2, 12] | concentration at 1 h [2, 13] | concentration at 2 h [2, 14] | concentration at 3.5 h [2, 15] | dose excreted at 6 h ([1]; 10 mg/kg, IM 10 mg./kg.) | dose excreted at 24 h [1, 16] | dose excreted at 24 h [1, 17] | solubility (Water solubility) | Form in solution by paper strip and liquid chromatography [6] | concentration at 0.5 h [2, 18] | concentration at 1 h [2, 19] | concentration at 2 h [2, 20] | concentration at 3.5 h [2, 21] | other results
N[C@@H](C(=O)N[C@@H]1C(=O)N2C(C(=O)O)=C(CSc3cnn[nH]3)CS[C@H]12)c1ccc(O)cc1 [BL-S640, 7-[D-α-amino-α-(p-hydroxyphenyl)acetamido]-3-(1,2,3-triazol-5-ylthiomethyl)-3-cephem-4-carboxylic acid, reference compound] | 44.2% | 47.5% | 3.3% | 48700 ng/mL | 24000 ng/mL | 10100 ng/mL | 50500 ng/mL | 39000 ng/mL | 24500 ng/mL | 9600 ng/mL | – | – | – | – | – | – | – | – | – | Blood Levels ([2]; Example 3, PO 100 mg./kg., 1 hr, Tween-CMC, average of two experiments): 42400 ng/mL; Blood Level ([2]; Table II, oral 100 mg./kg., 0.5 hr, Tween-carboxymethylcellulose, 8 mice, 100 mg/kg, 30 min): 57400 ng/mL; Blood Level ([2]; Table II, oral 100 mg./kg., 1 hr, Tween-carboxymethylcellulose, 8 mice, 100 mg/kg, 60 min): 47000 ng/mL; Blood Level ([2]; Table II, oral 100 mg./kg., 2 hr, Tween-carboxymethylcellulose, 8 mice, 100 mg/kg, 120 min): 29500 ng/mL; Blood Level ([2]; Table II, oral 100 mg./kg., 3.5 hr, Tween-carboxymethylcellulose, 8 mice, 100 mg/kg, 210 min): 10900 ng/mL
O=C(O)C1=C(CSc2cnn[nH]2)CS[C@@H]2[C@H](N3C(=O)[C@@H](c4ccc(O)cc4)NC3c3ccc(S(=O)(=O)O)o3)C(=O)N12 (stereo partly shown) [BL-S1027] | 39.6% | 42.2% | 2.6% | – | – | – | 45000 ng/mL | 36600 ng/mL | 20400 ng/mL | 10400 ng/mL | 30.1% | 31.8% | 1.7% | > 500 mg/mL | exists as free BL-S640 | 49800 ng/mL | 45100 ng/mL | 24000 ng/mL | 9300 ng/mL | MIC bacterial spectrum / activity compared with parent (bacterial spectrum): equal to that of BL-S640; non cyclic derivative in solution [3]: 20%; Form appearing in urine [4]: BL-S640 appeared in urine with no evidence; Intramuscular rat blood levels compared with BL-S640 (Rat blood levels; intramuscular): equal to that of BL-S640; Oral rat blood levels compared with BL-S640 (Rat blood levels; oral): equal to that of BL-S640; Storage of aqueous solutions, loss in activity ([5]; 250, 25 and 10 mg. BL-S640 activity/ml., 4° C. or room temperature, at least 24 hours): no significant loss in activity; Stability of solution in water: stable (retained full bioactivity) ([5]; 25,000 mcg./ml., 6° C. (refrigerator)): 14 days; Stability of solution in water ([5]; 25,000 mcg./ml., room temperature, for at least three days): stable (retained full bioactivity) for at least three days; degraded at 24 h ([5]; water, 250, 25 and 10 mg./ml. of BL-S640 activity, at least 24 hours at room temperature, read-out: Stability of solutions (loss)): < 10%; Solubility in water (Water solubility): > 400 mg/mL; free BL-S640 by liquid chromatography ([6]; 1 mg./ml. in pH 7 phosphate buffer, 0 time): 85%; Blood Level ([2]; Table II, oral 100 mg./kg., 0.5 hr, Tween-carboxymethylcellulose, 8 mice, listed as Compound of Ex. 1, 100 mg/kg, 30 min): 54600 ng/mL; Blood Level ([2]; Table II, oral 100 mg./kg., 1 hr, Tween-carboxymethylcellulose, 8 mice, listed as Compound of Ex. 1, 100 mg/kg, 60 min): 53500 ng/mL; Blood Level ([2]; Table II, oral 100 mg./kg., 2 hr, Tween-carboxymethylcellulose, 8 mice, listed as Compound of Ex. 1, 100 mg/kg, 120 min): 27600 ng/mL; Blood Level ([2]; Table II, oral 100 mg./kg., 3.5 hr, Tween-carboxymethylcellulose, 8 mice, listed as Compound of Ex. 1, 100 mg/kg, 210 min): 8200 ng/mL; Mouse blood levels, oral, compared with BL-S640 propylene glycol adduct ([2]; oral, in words): approximately equal; degraded (Stability of solids): < 10%
O=C(O)COc1ccccc1C1N[C@H](c2ccc(O)cc2)C(=O)N1[C@@H]1C(=O)N2C(C(=O)O)=C(CSc3cnn[nH]3)CS[C@H]12 (stereo partly shown) [BL-S1048] | 32.3% | 34.7% | 2.4% | – | – | – | – | – | – | – | 21.7% | 23.7% | 2% | – | BL-S640 completely free of the aldehyde | 46500 ng/mL | 44600 ng/mL | 28100 ng/mL | 12800 ng/mL | –
O=C(O)C1=C(CSc2cnn[nH]2)CS[C@@H]2[C@H](N3C(=O)[C@@H](c4ccc(O)cc4)NC3c3ccccc3S(=O)(=O)O)C(=O)N12 (stereo partly shown) [BL-S1055] | 36.6% | 39% | 2.4% | 38200 ng/mL | 22000 ng/mL | 11300 ng/mL | – | – | – | – | – | – | – | > 400 mg/mL | – | – | – | – | – | degraded at 1 h (physchem): 70.5%; degraded at 2 h (physchem): 88%; % Free BL-S640 by liquid chromatography ([6]; 0 min): 64.0%; concentration at 1 h ([2]; 100 mg/kg, Example 3, PO 100 mg./kg., 1 hr, Tween-CMC, average of two experiments, read-out: Blood Levels): 35700 ng/mL
